The values that follow come from ChEMBL document CHEMBL1201862, “PubChem BioAssay data set” (2004).

SMILES strings stand for the structures.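 Five concentrations, 48 hours, 96-well plates. GI50 = concentration required for 50% inhibition of growth.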 Calls of active or inactive are those of the source. Cut-off read from the data, not from the text of the source: active = GI50 up to about 1.1 µM and inactive = higher.

Some test systems named below: HL-60; K562; RXF 393; HOP-92; A498; OVCAR-4; SK-MEL-2; OVCAR-3; TK-10; NCI-H226; MOLT-4; HCT-15; NCI-H460; COLO 205; HT-29; NCI-H23; SF-295; OVCAR-5.
Common to all, as to assay: NCI tumour cell line growth inhibition, 48 h

Regarding `Cn1cc(C(=O)NCCC(=N)N)cc1NC(=O)C1=[N+](C)C=C(NC(=O)c2cccc(C(=O)NC3=CC(C(=O)Nc4cc(C(=O)NCCC(=N)N)cn4C)=[N+](C)C3)c2)C1`, the GI50 with HL-60 is > 100 µM (inactive); in the test on K562 it was 83.8 µM (inactive); in the test on RXF 393 it was 35.3 µM (inactive); with HOP-92, > 100 µM (inactive); in the test with A498, > 100 µM (inactive); in the test with OVCAR-4 it was > 100 µM (inactive). For the same compound, the GI50 in the test on SK-MEL-2 was > 100 µM (inactive); in the test on OVCAR-3, > 100 µM (inactive); with TK-10, > 100 µM (inactive); in the test with NCI-H226, > 100 µM (inactive); with MOLT-4 it was > 100 µM (inactive); in the test with HCT-15, more than 100 µM. Moreover, the GI50 in the test with NCI-H460 was > 100 µM (inactive); in the test on COLO 205, 50.7 µM (inactive); in the test with HT-29 it was > 100 µM (inactive); with NCI-H23 it was > 100 µM (inactive); in the test on SF-295 it was > 100 µM (inactive).

For the compound `O=C(/C(=C\c1ccccc1)CN1CCOCC1)c1ccc(Br)cc1`, the GI50 in the test with HL-60 was 1.5 µM (inactive); in the test on K562, 1.15 µM (inactive); in the test on RXF 393 it was 2.51 µM (inactive); in the test with HOP-92, 5.47 µM (inactive); with A498, 6.12 µM (inactive); in the test on OVCAR-4 it was 2.77 µM (inactive). The GI50 in the test on SK-MEL-2 is 1.92 µM (inactive); with OVCAR-3 it was 2.44 µM (inactive); in the test on TK-10, 5.37 µM (inactive); with NCI-H226, 6.68 µM (inactive); in the test on OVCAR-5, 3.48 µM (inactive); in the test on MOLT-4, 2.33 µM (inactive). The GI50 with HCT-15 is 1.93 µM; in the test on NCI-H460, 3.01 µM (inactive); in the test on COLO 205, 3.25 µM (inactive); in the test on HT-29, 2.05 µM (inactive); in the test on NCI-H23, 3.24 µM (inactive); with SF-295 it was 5.97 µM (inactive).

As to `COc1cc2c(OC)cc1CSCc1sc(C)c(c1Br)CSC2`, the GI50 is 69.3 µM (inactive) with HL-60; > 100 µM (inactive) in the test with K562; > 100 µM (inactive) with RXF 393; > 100 µM (inactive) in the test with HOP-92; > 100 µM (inactive) in the test with A498; > 100 µM (inactive) in the test on OVCAR-4. In addition, the GI50 in the test on SK-MEL-2, in the test with OVCAR-3, in the test with TK-10, in the test with NCI-H226, in the test with OVCAR-5 and in the test with MOLT-4 was > 100 µM (inactive) each time. Also, the GI50 is more than 100 µM in the test with HCT-15; > 100 µM (inactive) in the test on NCI-H460; > 100 µM (inactive) in the test on COLO 205; > 100 µM (inactive) in the test on HT-29; > 100 µM (inactive) in the test with NCI-H23; > 100 µM (inactive) in the test with SF-295.

Consider `Cc1ccc(C)c(NC(=O)C(=O)C2C(=O)N(c3ccccc3)N=C2N)c1` (centres undefined), for which the GI50 in the test on HL-60 is 31.7 µM (inactive); in the test on K562, 90.2 µM (inactive); in the test on RXF 393, > 100 µM (inactive); in the test on HOP-92, > 100 µM (inactive); in the test on A498, > 100 µM (inactive); in the test with OVCAR-4, > 100 µM (inactive). In addition, the GI50 with SK-MEL-2, with OVCAR-3, in the test on TK-10, in the test on NCI-H226, in the test on OVCAR-5 and in the test on MOLT-4 was > 100 µM (inactive) in each case. Also, the GI50 with HCT-15 was more than 100 µM; in the test with NCI-H460, > 100 µM (inactive); in the test on HT-29, > 100 µM (inactive); in the test with NCI-H23, > 100 µM (inactive); in the test on SF-295, > 100 µM (inactive).

As to `NCCCNCCSSCCCCS(=O)O`, the GI50 in the test on HL-60 is 10.4 µM (inactive); with K562, 24.3 µM (inactive); in the test with RXF 393 it was 30.3 µM (inactive); in the test on HOP-92 it was > 100 µM (inactive); in the test with A498, > 100 µM (inactive); with OVCAR-4, 14.6 µM (inactive). For the same compound, the GI50 with OVCAR-3 was 19.9 µM (inactive); in the test on TK-10, > 100 µM (inactive); in the test on NCI-H226, 57.8 µM (inactive); in the test on OVCAR-5, 55.1 µM (inactive); with MOLT-4, 5.09 µM (inactive); in the test on HCT-15, more than 100 µM. Further, the GI50 with NCI-H460 was 65.9 µM (inactive); in the test on COLO 205, 16.4 µM (inactive); with HT-29 it was 39.8 µM (inactive); in the test with NCI-H23 it was 17.7 µM (inactive); in the test on SF-295 it was 36.2 µM (inactive).

Consider `O=C1CCC(=O)N1Sc1ccccc1`, for which the GI50 in the test on HL-60, in the test on K562, with RXF 393, in the test on HOP-92, in the test with A498 and in the test on OVCAR-4 was > 100 µM (inactive) in each case. Moreover, the GI50 with SK-MEL-2 is > 100 µM (inactive); in the test with OVCAR-3 it was > 100 µM (inactive); with TK-10, > 100 µM (inactive); in the test with MOLT-4 it was > 100 µM (inactive); in the test on HCT-15, more than 100 µM; in the test with NCI-H460, > 100 µM (inactive). For the same compound, the GI50 in the test with COLO 205, in the test on NCI-H23 and in the test on SF-295 was > 100 µM (inactive) in each case.

`N#CC(C(=O)CCC(=O)Nc1cccc(Cl)c1)c1ccccc1` (centres undefined): the GI50 with HL-60, with K562, with RXF 393, with HOP-92, with A498 and in the test with OVCAR-4 was > 100 µM (inactive) throughout. Further, the GI50 in the test on SK-MEL-2, with OVCAR-3, in the test on TK-10, with NCI-H226, in the test with OVCAR-5 and in the test with MOLT-4 was > 100 µM (inactive) throughout. For the same compound, the GI50 is more than 100 µM in the test with HCT-15; > 100 µM (inactive) in the test with NCI-H460; > 100 µM (inactive) in the test with COLO 205; > 100 µM (inactive) in the test with HT-29; > 100 µM (inactive) in the test on NCI-H23; > 100 µM (inactive) in the test on SF-295.

Regarding `CC(=O)OC1(C#N)CC2OC1C1C2N1C(=O)c1ccccc1` (centres undefined), the GI50 in the test on HL-60, in the test on K562, with RXF 393, in the test with HOP-92, in the test with A498 and in the test with OVCAR-4 was > 100 µM (inactive) in each case. In addition, the GI50 in the test with SK-MEL-2 is > 100 µM (inactive); in the test on TK-10, > 100 µM (inactive); with NCI-H226 it was > 100 µM (inactive); in the test with OVCAR-5, > 100 µM (inactive); with MOLT-4 it was > 100 µM (inactive); in the test with HCT-15, more than 100 µM. Besides, the GI50 with NCI-H460, with COLO 205 and in the test with NCI-H23 was > 100 µM (inactive) in each case.

With `C=CCN(N=O)C(=O)NCCCCC(NC(C)=O)C(=O)NCc1ccccc1` (centres undefined), the GI50 with HL-60, in the test on K562, in the test with RXF 393, in the test with HOP-92, in the test with A498 and in the test on OVCAR-4 was > 100 µM (inactive) throughout. Also, the GI50 in the test on SK-MEL-2 was 72.6 µM (inactive); in the test on OVCAR-3, > 100 µM (inactive); in the test on TK-10 it was > 100 µM (inactive); in the test with NCI-H226, 42.5 µM (inactive); with OVCAR-5, > 100 µM (inactive); in the test on MOLT-4 it was > 100 µM (inactive). Also, the GI50 in the test with HCT-15 was more than 100 µM; in the test with NCI-H460 it was > 100 µM (inactive); with COLO 205, > 100 µM (inactive); in the test with HT-29, > 100 µM (inactive); in the test with NCI-H23, > 100 µM (inactive); with SF-295, > 100 µM (inactive).

`COc1ccc(C2=C(Cl)c3cc(OC)c(OC)cc3C2OC)cc1OC` (centres undefined): the GI50 was 8.11 µM (inactive) with HL-60; 5.74 µM (inactive) in the test on K562; > 100 µM (inactive) in the test with RXF 393; > 100 µM (inactive) in the test on HOP-92; > 100 µM (inactive) in the test with A498; > 100 µM (inactive) in the test on OVCAR-4. In addition, the GI50 in the test on SK-MEL-2 is > 100 µM (inactive); with TK-10 it was > 100 µM (inactive); in the test with NCI-H226, > 100 µM (inactive); with OVCAR-5, > 100 µM (inactive); in the test with MOLT-4, > 100 µM (inactive); in the test on HCT-15, 56.9 µM. The GI50 was > 100 µM (inactive) with NCI-H460; 26.9 µM (inactive) in the test with COLO 205; > 100 µM (inactive) with HT-29; > 100 µM (inactive) with NCI-H23; > 100 µM (inactive) with SF-295.

For `O=c1nc2occc2cn1C1CC(O)C(CO)O1` (centres undefined), the GI50 in the test on HL-60, with K562, with RXF 393, with HOP-92, with A498 and in the test with OVCAR-4 was > 100 µM (inactive) each time. In addition, the GI50 with OVCAR-3 was > 100 µM (inactive); in the test with TK-10, > 100 µM (inactive); in the test with NCI-H226, > 100 µM (inactive); in the test with OVCAR-5, > 100 µM (inactive); with MOLT-4, > 100 µM (inactive); with HCT-15 it was more than 100 µM. The GI50 in the test on NCI-H460, in the test with COLO 205, in the test with HT-29, in the test with NCI-H23 and with SF-295 was > 100 µM (inactive) in each case.

For the compound `CCCCN[C@H]1C2C3CC4C5CC(C42)C1(C)C53` (some centres undefined), the GI50 in the test on HL-60, with K562, with RXF 393, with HOP-92, with A498 and in the test with OVCAR-4 was > 100 µM (inactive) throughout. Moreover, the GI50 in the test on SK-MEL-2, in the test with OVCAR-3, in the test on TK-10, with NCI-H226, in the test with OVCAR-5 and in the test on MOLT-4 was > 100 µM (inactive) throughout. For the same compound, the GI50 in the test with HCT-15 is more than 100 µM; with NCI-H460 it was > 100 µM (inactive); in the test with COLO 205, > 100 µM (inactive); in the test with HT-29, > 100 µM (inactive); in the test with SF-295, > 100 µM (inactive).
